According to paper PMC9502897, “Design, Synthesis and Structure—Activity Relationships of Phenylalanine-Containing Peptidomimetics as Novel HIV-1 Capsid Binders Based on Ugi Four-Component Reaction” (Molecules, 2022):

Tests used:
HIV-2 = assay: Anti-HIV-2 activity in MT-4 cells (MTT method); assay type: cell-based
Procedure: (§1) The evaluation of the antiviral activity of the compounds against HIV in MT-4 cells was performed using the MTT assay as described below. Stock solutions (10 × final concentration) of test compounds were added in 25 μL volumes to two series of triplicate wells to allow simultaneous evaluation of their effects on mock- and HIV-infected cells at the beginning of each experiment. Serial 5-fold dilutions of test compounds were made directly in flat-bottomed 96-well microtiter trays using a Biomek 3000 robot (Beckman Instruments, Fullerton, CA). Untreated HIV- and mock-infected cell samples were included as controls. HIV stock ([…]) at 100–300 CCID50 (50% cell culture infectious doses) or culture medium was added to either the infected or mock-infected wells of the microtiter tray. Mock-infected cells were used to evaluate the effects of the test compound on uninfected cells to assess the test compounds’ cytotoxicity. Exponentially growing MT-4 cells were centrifuged for 5 min at 220 g, and the supernatant was discarded. The MT-4 cells were resuspended at 6 × 10^5 cells/mL, and 50 μL volumes were transferred to the microtiter tray wells. Five days after infection, the viability of mock- and HIV-infected cells was examined spectrophotometrically using the MTT assay. The MTT assay is based on the reduction of yellow-colored 3-(4,5-dimethylthiazol-2-yl)-2,5-diphenyltetrazolium bromide (MTT) (Acros Organics) by mitochondrial dehydrogenase activity in metabolically active cells to a blue-purple formazan that can be measured spectrophotometrically. The absorbances were read in an eight-channel computer-controlled photometer (Infinite M1000, Tecan) at two wavelengths (540 and 690 nm). All data were calculated using the median absorbance value of three wells.

HIV-1 = assay: Anti-HIV-1 activity in MT-4 cells (MTT method); assay type: cell-based; conditions: for EC50: MT-4 cells, 50% protection against HIV-induced cytopathicity, MTT method; for anti-HIV activity: R2 1-methylnaphthalene replaced by 2-methylnaphthalene, HIV-1/HIV-2, MT-4 cells
Procedure: as §1

MT-4 cells = assay: in vitro
Procedure: as §1

HIV-1 NL4-3 CA hexamer = HIV-1 NL4-3 CA hexamer (Human immunodeficiency virus type 1 group M subtype B, UniProt P12493, A146C/E177C/M317A/W316A); assay: SPR binding to disulfide-stabilized NL4-3 CA hexamer
HIV-1 NL4-3 CA monomer = target: T1, HIV-1 NL4-3 CA monomer (Human immunodeficiency virus type 1 group M subtype B, UniProt P12493); assay: biochemical; assay type: binding; conditions: SPR
T1 construct: the HIV-1 NL4-3 capsid protein constructs; His6 (C); made in house; host or cells: E. coli BL21-Codon Plus (DE3)-RIL

in vitro = conditions: human
Procedure: as §1

[1] = metabolic stability; cited from earlier work
HIV = conditions: moderate activity; cited from earlier work
[2] = Human immunodeficiency virus 2, MT4, 50% protection against HIV-induced cytopathicity
[3] = Human immunodeficiency virus 1, MT4
[4] = 50% protection against HIV-induced cytopathicity

Compound | EC50 (HIV-2; [2]) [µM] | EC50 (HIV-1; [3]) [µM] | CC50 (MT-4 cells; human, 5 days) [µM] | also measured
COc1ccc(N(C)C(=O)[C@H](Cc2cc(F)cc(F)c2)NC(=O)CN(Cc2ccc(F)cc2)C(=O)Cc2ccc3ccccc3c2)cc1 [I-6, (S)-3-(3,5-difluorophenyl)-2-(2-(N-(4-fluorobenzyl)-2-(naphthalen-2-yl)acetamido)acetamido)-N-(4-methoxyphenyl)-N-methylpropanamide] | > 160 | > 160 | > 160 | anti-HIV activity (HIV-1): lost
COc1ccc(N(C)C(=O)[C@H](Cc2cc(F)cc(F)c2)NC(=O)CN(Cc2ccc(F)cc2)C(=O)Cc2c(C)[nH]c3ccccc23)cc1 [I-7, (S)-3-(3,5-difluorophenyl)-2-(2-(N-(4-fluorobenzyl)-2-(2-methyl-1H-indol-3-yl)acetamido)acetamido)-N-(4-methoxyphenyl)-N-methylpropanamide] | > 22.6 | 2.79 ± 0.19 | 22.6 ± 0.96 | –
COc1ccc(N(C)C(=O)[C@H](Cc2cc(F)cc(F)c2)NC(=O)CN(Cc2ccc(F)cc2)C(=O)Cc2cccc3ccccc23)cc1 [I-8, (S)-3-(3,5-difluorophenyl)-2-(2-(N-(4-fluorobenzyl)-2-(naphthalen-1-yl)acetamido)acetamido)-N-(4-methoxyphenyl)-N-methylpropanamide] | 5.87 ± 1.79 | > 191 | > 191 | –
COc1ccc(N(C)C(=O)[C@H](Cc2cc(F)cc(F)c2)NC(=O)CN(Cc2ccc(F)cc2)C(=O)Cc2c[nH]c3ccc(Br)cc23)cc1 [I-9, (S)-2-(2-(2-(5-bromo-1H-indol-3-yl)-N-(4-fluorobenzyl)acetamido)acetamido)-3-(3,5-difluorophenyl)-N-(4-methoxyphenyl)-N-methylpropanamide] | > 17.8 | 2.93 ± 0.32 | 17.8 ± 1.04 | –
COc1ccc(N(C)C(=O)[C@H](Cc2cc(F)cc(F)c2)NC(=O)CN(CC2CCCCC2)C(=O)Cc2c[nH]c3ccc(Br)cc23)cc1 [I-10, (S)-2-(2-(2-(5-bromo-1H-indol-3-yl)-N-(cyclohexylmethyl)acetamido)acetamido)-3-(3,5-difluorophenyl)-N-(4-methoxyphenyl)-N-methylpropanamide] | > 17.6 | > 17.6 | 17.6 ± 2.41 | –
COc1ccc(N(C)C(=O)[C@H](Cc2cc(F)cc(F)c2)NC(=O)CN(Cc2ccc(F)cc2)C(=O)Cc2ccc(B3OC(C)(C)C(C)(C)O3)cc2)cc1 [I-12, (S)-3-(3,5-difluorophenyl)-2-(2-(N-(4-fluorobenzyl)-2-(4-(4,4,5,5-tetramethyl-1,3,2-dioxaborolan-2-yl)phenyl)acetamido)acetamido)-N-(4-methoxyphenyl)-N-methylpropanamide] | 13.2 ± 2.6 | 11.7 ± 2.07 | 65.4 ± 16.8 | –
COc1ccc(N(C)C(=O)[C@H](Cc2cc(F)cc(F)c2)NC(=O)CN(Cc2ccc(C#N)cc2)C(=O)Cc2ccc3ccccc3c2)cc1 [I-13, (S)-2-(2-(N-(4-cyanobenzyl)-2-(naphthalen-2-yl)acetamido)acetamido)-3-(3,5-difluorophenyl)-N-(4-methoxyphenyl)-N-methylpropanamide] | 161 ± 26 | > 189 | > 189 | anti-HIV activity (HIV-1): lost
COc1ccc(N(C)C(=O)[C@H](Cc2cc(F)cc(F)c2)NC(=O)CN(Cc2ccc(C#N)cc2)C(=O)Cc2cccc3ccccc23)cc1 [I-14, (S)-2-(2-(N-(4-cyanobenzyl)-2-(naphthalen-1-yl)acetamido)acetamido)-3-(3,5-difluorophenyl)-N-(4-methoxyphenyl)-N-methylpropanamide] | 2.3 ± 0.11 | > 189 | > 189 | –
COc1ccc(N(C)C(=O)[C@H](Cc2cc(F)cc(F)c2)NC(=O)CN(Cc2ccc(C#N)cc2)C(=O)Cc2ccc(B3OC(C)(C)C(C)(C)O3)cc2)cc1 [I-17, (S)-2-(2-(N-(4-cyanobenzyl)-2-(4-(4,4,5,5-tetramethyl-1,3,2-dioxaborolan-2-yl)phenyl)acetamido)acetamido)-3-(3,5-difluorophenyl)-N-(4-methoxyphenyl)-N-methylpropanamide] | 16.2 ± 4.59 | 17.7 ± 4.6 | 52.4 ± 14.2 | –
COc1ccc(N(C)C(=O)[C@H](Cc2cc(F)cc(F)c2)NC(=O)CN(C(=O)Cc2ccc(B3OC(C)(C)C(C)(C)O3)cc2)C2CC2)cc1 [I-18, (S)-2-(2-(N-cyclopropyl-2-(4-(4,4,5,5-tetramethyl-1,3,2-dioxaborolan-2-yl)phenyl)acetamido)acetamido)-3-(3,5-difluorophenyl)-N-(4-methoxyphenyl)-N-methylpropanamide] | 9.71 ± 0.8 | 5.18 ± 1.11 | 89 ± 17.1 | –
COc1ccc(N(C)C(=O)[C@H](Cc2cc(F)cc(F)c2)NC(=O)CN(Cc2ccc(F)cc2)C(=O)Cn2nc(C(F)(F)F)c3c2CCCC3)cc1 [I-19, (S)-3-(3,5-difluorophenyl)-2-(2-(N-(4-fluorobenzyl)-2-(3-(trifluoromethyl)-4,5,6,7-tetrahydro-1H-indazol-1-yl)acetamido)acetamido)-N-(4-methoxyphenyl)-N-methylpropanamide] | 12.9 ± 3.72 | 2.53 ± 0.84 | – | Koff Hexamer (HIV-1 NL4-3 CA hexamer; 1:1 binding model): 0.00758 ± 0.000504 S^−1; Kon Hexamer (HIV-1 NL4-3 CA hexamer; 1:1 binding model): 628 ± 152 M^−1S^−1; Kd (HIV-1 NL4-3 CA hexamer; 25 °C, at least 3 replicates): 36.9 µM; melting point: 46 to 48 °C; Ratio KD (monomer)/KD(hexamer) (HIV-1 NL4-3 CA monomer): 0.36; Koff Monomer (HIV-1 NL4-3 CA monomer; 1:1 binding model): 0.0301 ± 0.0172 S^−1; Kon Monomer (HIV-1 NL4-3 CA monomer; 1:1 binding model): 4160 ± 1670 M^−1S^−1; Kd (HIV-1 NL4-3 CA monomer; 25 °C, at least 3 replicates): 13.3 µM; CC50 at 5 days (in vitro; CC50): 108 ± 27.4 µM
COc1ccc(N(C)C(=O)[C@H](Cc2cc(F)cc(F)c2)NC(=O)CN(CC2CCCCC2)C(=O)Cn2nc(C(F)(F)F)cc2C)cc1 [I-20, (S)-2-(2-(N-(cyclohexylmethyl)-2-(5-methyl-3-(trifluoromethyl)-1H-pyrazol-1-yl)acetamido)acetamido)-3-(3,5-difluorophenyl)-N-(4-methoxyphenyl)-N-methylpropanamide] | 24.9 ± 12 | 30.3 ± 3.24 | 45.7 ± 5.36 | –
COc1ccc(N(C)C(=O)[C@H](Cc2cc(F)cc(F)c2)NC(=O)CN(Cc2ccccc2)C(=O)Cc2c(C)[nH]c3ccccc23)cc1 [I-21, (S)-2-(2-(N-benzyl-2-(2-methyl-1H-indol-3-yl)acetamido)acetamido)-3-(3,5-difluorophenyl)-N-(4-methoxyphenyl)-N-methylpropanamide] | 6.52 ± 0.6 | 2.77 ± 0.77 | 28.6 ± 0.86 | –
COc1ccc(N(C)C(=O)[C@H](Cc2cc(F)cc(F)c2)NC(=O)CN(Cc2ccccc2)C(=O)Cc2ccc3ccccc3c2)cc1 [I-22, (S)-2-(2-(N-benzyl-2-(naphthalen-2-yl)acetamido)acetamido)-3-(3,5-difluorophenyl)-N-(4-methoxyphenyl)-N-methylpropanamide] | > 18.9 | > 176 | 176 ± 7.35 | –
COc1ccc(N(C)C(=O)[C@H](Cc2cc(F)cc(F)c2)NC(=O)CN(Cc2ccc(F)cc2)C(=O)Cc2ccc(B(O)O)cc2)cc1 [I-23, (S)-(4-(2-((2-((3-(3,5-difluorophenyl)-1-((4-methoxyphenyl)(methyl)amino)-1-oxopropan-2-yl)amino)-2-oxoethyl)(4-fluorobenzyl)amino)-2-oxoethyl)phenyl) boronic acid] | 6.8 ± 0.36 | 4.33 ± 1.32 | 18.9 ± 3.59 | –
Cc1ccnc2c1NC(=O)c1cccnc1N2C1CC1 [NVP, nevirapine, reference compound] | > 15 | – | – | CC50 (MT-4 cells; uninfected MT-4 cells, viability reduced by 50%, MTT method): > 15 µM; CC50 at 5 days (in vitro; mock-infected (uninfected) MT-4 cells, CC50, uninfected MT-4 cells, viability reduced by 50%, MTT method): > 15.2 µM
Cc1[nH]c2ccccc2c1CC(=O)NC(Cc1ccccc1)C(=O)N(C)c1ccccc1 (stereo not shown) [PF-74, reference compound] | > 2.22 | 0.26 ± 0.08 | – | T1/2 [1]: 0.5 to 1.3 min; EC50 (HIV-2; [4]): 2.22 ± 0.31 µM; CC50 at 5 days (in vitro; CC50): 73.8 ± 7.54 µM; EC50 (HIV): 520 to 900 nM
(S)-2-(2-(2-(5-bromo-2-methyl-1H-indol-3-yl)-N-(4-cyanobenzyl)acetamido)acetamido)-3-(3,5-difluorophenyl)-N-(4-methoxyphenyl)-N-methylpropanamide [I-16] | – | – | – | EC50 (HIV-2; [4]): 15.7 ± 13.3 µM; EC50 (HIV-1): 5.61 ± 1.18 µM; CC50 (MT-4 cells): 87.6 ± 62.2 µM
(S)-2-(2-(N-(4-cyanobenzyl)-2-(5-fluoro-2-methyl-1H-indol-3-yl)acetamido)acetamido)-3-(3,5-difluorophenyl)-N-(4-methoxyphenyl)-N-methylpropanamide [I-15] | – | – | – | EC50 (HIV-2; [4]): 5.81 ± 1.11 µM; EC50 (HIV-1): 17.2 ± 9.98 µM; CC50 (MT-4 cells): 148 ± 16.6 µM
